2 compounds from patent US20030157715A1, “Modulation of chromosome function by chromatin remodeling agents” (priority 2000, published 2003) can be followed below.

“And” between values parts separate entries of the source, which are not always exact repeats. Equal values may be shown once. “Also recorded” adds a separate entry of the source.

Data set [1] deals with satellite III chromatin in Kc nuclei. Briefly: Chromatin opening of satellite III: topoisomerase II / restriction enzyme cleavage in Kc nuclei. Type of data set: biochemical, Drosophila.
The subject of another data set is w^m4 flies. Description: Polyamides fed to developing white-mottled flies. Type of data set: in vivo, Drosophila melanogaster. To be noted: for Lethality / Sex comb (mean) / Sex comb, range of teeth / A6 to A5: fly stock w^m4; for A6 to A5: males with bristles on A6. An excerpt: The eye phenotype of w^m4 flies is quite heterogeneous. About 65% of the eyes are strongly variegated, ranging from quasi-white with little pigment to those containing a generally white background and a number of red patches (defined as the white-mottled class). The remaining flies have eyes with a darker appearance with often larger red patches in an orange background (red-mottled class). Given the phenotypic heterogeneity of w^m4 flies, we carried out our experiments on a relatively large scale by mixing these compounds directly with semi-synthetic fly medium. Vials were prepared containing a final concentration of either 100 μM P9, P31 or no compound. Equal numbers of 5 to 10 days old w^m4 flies were allowed to lay eggs for 36 hours. The parents were then removed and progeny development was allowed to proceed at a constant temperature of 18° C. […] The timing of the developmental stages was also normal and generally, around 90 to 160 flies hatched per vial in this experiment (Table 2).
For eye phenotype analysis, young flies born on the same day were transferred to a drug-free vial and scored 5 days thereafter. Eye phenotypes were categorized into the two classes defined as white-mottled or red-mottled, after examination under a dissection microscope. […] Where in the absence of the drug, 62% of the eyes were scored as white-mottled, only 11% retained this phenotype for the flies raised in the presence of P9. […] In contrast, P31 had no effect on the w^m4 eye phenotype, since 64% of the flies remained white-mottled (FIG. 7C, Table 2).
Vials for egg laying containing polyamides were prepared as follows: 250 nmoles of P9, P31 was dissolved in 150 μl ddH2O and then mixed with 2.35 g of semi-synthetic fly media pre-heated at 60° C. These vials contained a concentration 100 μM of compound in final. After cooling down to room temperature, ˜300 w^m4 flies (age 5-10 days) were added to the vial for egg laying. Eggs were collected for a period of 36 hours at 18° C., mother flies were then removed and fly development was allowed to proceed at a constant temperature (18° C.±1). New-born flies of the same day were transferred to a fresh vial and scored after 5 days for eye phenotypes (Girard et al., 1998). For visual inspection of eye-phenotypes (Table 1), both female and male flies were scored. For optical density measurements of the eye-pigments, 30 heads of males were selected, pigments extracted and measured as described (Hazelrigg et al., 1984).
(§1) The lethality of the progenies was calculated by counting the dead bodies and the total empty pupal shells. The A6 to A5 transformation was detected by bristles that form on abdominal segment A6 on males. All male adult flies obtained (˜50) were scored. Sex combs and halteres were individually inspected and photographed under the microscope (Axiophot, Zeiss) after dissecting at least 30 individuals and incubating them into 30 μl of 0.6 g/ml gum arabic; 4 g/ml chlorohydrate; 35% glycerol under a 24×24 mm coverslip as described (Ashburner, 1989). Since raising double heterozygous flies (Ubx^1/+; bw^D/+) led to lethality, we morphologically dissected eight late stage pupae after carefully removing the pupal envelope.

Data set [2] relates to heterozygous bw^D flies (bw^D/+). Description: Polyamides fed to developing heterozygous brown-dominant flies. The format is in vivo, Drosophila melanogaster. To be noted: for eye phenotype / trans-inactivation (in words): bw^D/+, st/st progeny. The method, then: It was therefore of great interest to test whether P31 would affect the eye phenotype of heterozygous bw^D flies. […] The experiment is similar to that described above for w^m4. Vials with semi-synthetic fly food medium were prepared containing a final concentration of 100 μM P31, P9 or no compound. Egg laying was allowed to proceed for 36 hours by homozygous (bw^D/bw^D) females that were crossed with scarlet (st/st) males. The progeny from this cross is heterozygous for the brown locus and homozygous for scarlet (bw^D/+; st/st). In a scarlet background, a modification of the bw^D eye color is much easier to observe (Talbert et al., 1994).
Drug treatments of the bw^D flies were performed as for w^m4 flies except that 30 parental females were allowed to lay eggs. To obtain the heterozygous bw^D/+; st/st progeny, 30 virgin bw^D/bw^D; st/st homozygous females were mated with scarlet homozygous males for about 5 days before transferring them to experimental vials for egg laying.
as §1

The subject of data set [3] is GAF distribution at the bw^D insert of polytene nuclei. Description: GAF immunofluorescence in permeabilized bw^D salivary glands. The settings on record: permeabilized glands incubated 60 minutes with compound. The format is cell-based, Drosophila melanogaster. The method, then: We argued that perhaps P31 may open the bw^D insert as to render this heterochromatin more accessible for GAF binding. To address this question, we incubated permeabilized bw^D salivary glands either with P31, P9 or no drug and then triply stained the polytene nuclei for GAF (by immunofluorescence), total DNA (with DAPI) and for the bw^D insert (with P31T). Stained polytene glands were gently mounted for microscopy without squashing in order examine a large number of nuclei.
Kc nuclei and polytene chromosomes were stained with fluorescent polyamides as described elsewhere (Janssen et al., 2000). For immunofluorescence, polytene glands were carefully dissected from bw^D or Canton S. flies in 1× PBS as described (Ashburner, 1989) Whole glands in sol P (1×PBS supplemented with 1 mM MgCl2 and 0.1% digitonin) were then incubated for 60 minutes with various concentrations of either P31, P9 or no compound at room temperature. P31 (not P9) induced redistribution of GAF during this incubation step. Glands were washed then twice for 5 min with sol P and fixed with fresh paraformaldehyde at a final concentration of 0.8%. Glands were washed 5 times in sol P for 5 min and then blocked for 60 min in the same buffer, supplemented with 5% non-fat milk. […] Images were recorded with a wide field, deconvolution-type imaging system from DeltaVision.

The mark [4] stands for this setting: 100 μM in fly food, eyes scored after 5 days.
[5] abbreviates: 30 male heads, spectrometry, 100 μM in food.

As to `CN(C)CCCNC(=O)CCNC(=O)c1nc(NC(=O)CCNC(=O)c2nc(NC(=O)CCNC(=O)c3cc(NC(=O)c4nc(NC(=O)CCNC(=O)c5nccn5C)cn4C)cn3C)cn2C)cn1C` [Compound P31, Im-β-Im-Py-β-Im-β-Im-β-Dp], in data set [1], the “concentration giving cleavage stimulation comparable to 62 nM of P9” value is 500 nM. Besides, in data set [1] (up to 200 nM), the “stimulation of topoisomerase II cleavage up to 200 nM” value is recorded as “no significant reinforcement”. Further, the “effect on PEV / w^m4 eye phenotype (in words)” value in the data set with w^m4 flies (100 μM in fly food) was “no effect; also recorded: no activity”. Also, in the data set on w^m4 flies (setting [4]), the “"White mottled" (Strongly Variegated)” value amounted to 64% and the “"red Mottled" (Weakly Variegated)” value stood at 36%. In the data set with w^m4 flies, the Lethality is 5-10%; the “Sex comb (mean)” value is given as 10.8; the “Sex comb, range of teeth” value is given as 9-13; the “A6 to A5” value came out at 0%. Moreover, in data set [2] (bw^D/+ progeny), the “mean number of bristles on A6” value is 3.75. The “eye phenotype / trans-inactivation (in words)” value in data set [2] is reported as “does not overcome trans-inactivation to a significant extent”. Further, in data set [2] (fly stock bw^D/bw^+), the Lethality was 5-10%; the “Sex comb (mean)” value was determined as 8.1; the “Sex comb, range of teeth” value is on record as 7-10. Besides, the PEV result in data set [2] (fly stock bw^D/bw^+, grade, key not given) is on record as “(+?)”. For the same compound, in data set [2] (heterozygous progeny), the “progeny lacking bristles on A6” value was “about 10%”. Also, in data set [2] (in vivo), the “Pupae delay” value lay within 65 to 67 h and the developmental delay entry is given as “over 2 days”. Besides, in data set [3], the “GAF distribution relative to the bw^D insert” value is “dramatic GAF redistribution”.

For the compound `CN(C)CCCNC(=O)CCNC(=O)c1cc(NC(=O)c2cc(NC(=O)c3cc(NC(=O)CCNC(=O)c4cc(NC(=O)c5cc(NC(=O)c6cccn6C)cn5C)cn4C)cn3C)cn2C)cn1C` [Compound P9, PyPyPy-β-PyPyPy-β-Dp], in data set [1], the “facilitation of cleavage by topoisomerase II (in words)” value is on record as “strongly facilitate cleavage”. The “stimulation of topoisomerase II cleavage at 62 nM” value in data set [1] (62 nM, lowest concentration) was “massive cleavage stimulation”. For the same compound, the “concentration of maximal stimulation of topoisomerase II cleavage” value in data set [1] (Kc nuclei in Xenopus egg extracts, VM26) is 500 nM and 500 to 1000 nM. In addition, the “lower concentration than P31 needed to open satellite III” value in data set [1] (P9 versus P31) is “roughly 10 fold”. Moreover, the “cleavage within satellite III by restriction enzymes (HaeIII)” value in data set [1] (data not shown) is “facilitated cleavage within satellite III by restriction enzymes”. In addition, in the data set with w^m4 flies (100 μM in fly food), the “effect on PEV / w^m4 eye phenotype (in words)” value is listed as “strong suppressor of PEV”. Further, in the data set on w^m4 flies (setting [4]), the “"White mottled" (Strongly Variegated)” value amounted to 8.9%. Also, in the data set on w^m4 flies (setting [5]), the “red pigment level relative to control flies (no drug)” value is “about 3 times” and the “red pigment level relative to wild type flies” value was “about 50%”. For the same compound, in the data set with w^m4 flies, the Lethality was 5-10%; the “Sex comb (mean)” value was 10.8; the “Sex comb, range of teeth” value is on record as 9-12; the “A6 to A5” value is 0%. Besides, the “eye phenotype / trans-inactivation (in words)” value in data set [2] is “indistinguishable from that of the no-drug control”. Besides, in data set [2] (fly stock bw^D/bw^+), the “A6 to A5, number of bristles on A6” value is “no bristles were observed” and the Lethality was 5-10%. For the same compound, the “A6 to A5” value in data set [2] (fly stock bw^D/bw^+, males with bristles on A6) is 0%. Besides, the “GAF distribution relative to the bw^D insert” value in data set [3] is recorded as “does not alter this pattern”.
